Earlier results as cited in patent US20030054020A1, “Method and composition for reducing sebum secretion in mammals” (priority 2001, published 2003).

Test system: human sebaceous glands

CC1=C(/C=C/C(C)=C/C=C/C(C)=C\C(=O)O)C(C)(C)CCC1 [13-cis-retinoic acid]
Reduction of the size of human sebaceous glands: up to 90%
